# Measurements from US9181186B2, “Aromatic ring compound” (TAKEDA PHARMACEUTICAL COMPANY LIMITED, priority 2012, dated 2015).
# Target: T1, human GPR40 (Homo sapiens, UniProt O14842)
# T1 construct: expressed in transfected cells
# Experiment: Evaluation of human GPR40 agonist activity with increase in intracellular Ca2+ concentration as an index (FLIPR Tetra)
# Type: cell-based
# Details: test compound 1 μM; CHO(dhfr−) cells stably expressing human GPR40; 100% = 1 μM WO2009/048527 Example 99.2, 0% = DMSO
# Experimental: Evaluation of Human GPR40 Agonist Activity with Increase in Intracellular Ca^2+ Concentration as an Index
# CHO(dhfr−) cells that stably expressed human GPR40 were suspended in MEMα (Nikken Bio Medical Laboratory) containing 10% dialysis serum (GEMINI BIO-PRODUCTS), 10 mM HEPES (Invitrogen), 100 U/mL penicillin, 100 μg/mL streptomycin (Invitrogen), and plated on a 384 well black/clear cell culture plate at 10,000 cells/well. After culture overnight in a CO2 incubator at 37° C., the culture supernatant was removed, and a loading buffer [dye attached to Calcium 5 Assay Kit (Molecular Devices) was dissolved in an assay buffer (20 mM HEPES, 0.2% fatty acid-free BSA (Sigma-Aldrich), 2.5 mM probenecid (DOJINDO)-containing HBSS (Invitrogen)) added with 0.025% Cremophor EL (DOJINDO)] was added at 37.5 μL/well. After incubation in a CO2 incubator at 37° C. for 1 hr, the cells were stood at room temperature for 15 min, an assay buffer containing the test compound at a final concentration of 1 μM was added at 12.5 μL/well in FLIPR Tetra (Molecular Devices), and the fluorescence amount was successively measured. Human GPR40 agonist activity calculated using an increase in the intracellular Ca^2+ concentration as an index, wherein the activity of 1 μM of the compound described in WO 2009/048527 (WO2009/048527 Example 99.2) was 100%, and the activity when DMSO was added instead of the test compound was 0%.
# T1 sequence (O14842 whole entry): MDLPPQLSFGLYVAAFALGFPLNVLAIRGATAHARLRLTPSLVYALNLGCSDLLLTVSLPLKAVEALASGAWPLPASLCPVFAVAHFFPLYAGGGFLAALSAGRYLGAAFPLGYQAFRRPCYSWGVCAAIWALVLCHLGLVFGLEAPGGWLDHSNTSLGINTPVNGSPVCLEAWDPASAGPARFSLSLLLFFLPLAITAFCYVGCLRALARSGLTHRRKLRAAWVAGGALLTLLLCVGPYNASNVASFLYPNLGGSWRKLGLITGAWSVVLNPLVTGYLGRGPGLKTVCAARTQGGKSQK
SMILES,Human GPR40 agonist activity (increase in intracellular Ca2+ concentration) [%],activation at 1 µM [%]
"COc1ccc(F)c(-c2ccc(COc3cccc(C(CC(=O)O)C4CC4)c3)nc2CC(C)(C)C)c1 (single isomer, unassigned) [Example 7, 3-cyclopropyl-3-(3-((6-(2,2-dimethylpropyl)-5-(2-fluoro-5-methoxyphenyl)pyridin-2-yl)methoxy)phenyl)propanoic acid]",106,
"COc1ccc(F)c(-c2ccc(COc3cccc(C(CC(=O)O)C4CC4)c3)nc2OCC(C)C)c1 (stereo not shown) [Example 1, 3-cyclopropyl-3-(3-((5-(2-fluoro-5-methoxyphenyl)-6-isobutoxypyridin-2-yl)methoxy)phenyl)propanoic acid]",,100
"COc1ccc(F)c(-c2ccc(COc3cc(C(CC(=O)O)C4CC4)ncn3)nc2OCC(C)C)c1 (stereo not shown) [Example 2, 3-cyclopropyl-3-(6-((5-(2-fluoro-5-methoxyphenyl)-6-isobutoxypyridin-2-yl)methoxy)pyrimidin-4-yl)propanoic acid]",,107
"COc1ccc(F)c(-c2cnc(COc3cc(C(CC(=O)O)C4CC4)ncn3)cc2OCC(C)C)c1 (stereo not shown) [Example 6, 3-cyclopropyl-3-(6-((5-(2-fluoro-5-methoxyphenyl)-4-isobutoxypyridin-2-yl)methoxy)pyrimidin-4-yl)propanoic acid]",,98
"COc1ccc(F)c(-c2ccc(COc3cc(C(CC(=O)O)C4CC4)ncn3)nc2CC(C)(C)C)c1 (stereo not shown) [Example 8, 3-cyclopropyl-3-(6-((6-(2,2-dimethylpropyl)-5-(2-fluoro-5-methoxyphenyl)pyridin-2-yl)methoxy)pyrimidin-4-yl)propanoic acid]",,106
"COc1ccc(F)c(-c2ccc(COc3cccc(C(CC(=O)O)C4CC4)c3)nc2CC(C)(C)C)c1 (stereo not shown) [Example 11, 3-cyclopropyl-3-(3-((6-(2,2-dimethylpropyl)-5-(2-fluoro-5-methoxyphenyl)pyridin-2-yl)methoxy)phenyl)propanoic acid]",,100
"COc1ccc(F)c(-c2ccc(COc3cc(C(CC(=O)O)C4CC4)ccc3OC)nc2CC(C)(C)C)c1 (stereo not shown) [Example 12, 3-cyclopropyl-3-(3-((6-(2,2-dimethylpropyl)-5-(2-fluoro-5-methoxyphenyl)pyridin-2-yl)methoxy)-4-methoxyphenyl)propanoic acid]",,112
"COc1ccc(F)c(-c2ccc(COc3cc(CCC(=O)O)ccc3C)nc2CC(C)(C)C)c1 [Example 13, 3-(3-((6-(2,2-dimethylpropyl)-5-(2-fluoro-5-methoxyphenyl)pyridin-2-yl)methoxy)-4-methylphenyl)propanoic acid]",,110
"COc1cc(CCC(=O)O)cc(OCc2ccc(-c3cc(OC)ccc3F)c(CC(C)(C)C)n2)c1 [Example 15, 3-(3-((6-(2,2-dimethylpropyl)-5-(2-fluoro-5-methoxyphenyl)pyridin-2-yl)methoxy)-5-methoxyphenyl)propanoic acid]",,103
"COc1ccc(F)c(-c2ccc(COc3cc(F)cc(CCC(=O)O)c3)nc2CC(C)(C)C)c1 [Example 16, 3-(3-((6-(2,2-dimethylpropyl)-5-(2-fluoro-5-methoxyphenyl)pyridin-2-yl)methoxy)-5-fluorophenyl)propanoic acid]",,109
"COc1ccc(F)c(-c2ccc(COc3ccc(C)c(CCC(=O)O)c3)nc2CC(C)(C)C)c1 [Example 17, 3-(5-((6-(2,2-dimethylpropyl)-5-(2-fluoro-5-methoxyphenyl)pyridin-2-yl)methoxy)-2-methylphenyl)propanoic acid]",,109
"COc1ccc(F)c(-c2ccc(COc3ccc(OC)c(CCC(=O)O)c3)nc2CC(C)(C)C)c1 [Example 18, 3-(5-((6-(2,2-dimethylpropyl)-5-(2-fluoro-5-methoxyphenyl)pyridin-2-yl)methoxy)-2-methoxyphenyl)propanoic acid]",,109
"COc1ccc(F)c(-c2ccc(COc3ccc(F)c(CCC(=O)O)c3)nc2CC(C)(C)C)c1 [Example 19, 3-(5-((6-(2,2-dimethylpropyl)-5-(2-fluoro-5-methoxyphenyl)pyridin-2-yl)methoxy)-2-fluorophenyl)propanoic acid]",,109
"COc1ccc(F)c(-c2ccc(COc3cccc(CCC(=O)O)c3F)nc2CC(C)(C)C)c1 [Example 22, 3-(3-((6-(2,2-dimethylpropyl)-5-(2-fluoro-5-methoxyphenyl)pyridin-2-yl)methoxy)-2-fluorophenyl)propanoic acid]",,103
"COc1ccc(F)c(-c2ccc(COc3cc(C)cc(CCC(=O)O)c3)nc2CC(C)(C)C)c1 [Example 23, Sodium 3-(3-((6-(2,2-dimethylpropyl)-5-(2-fluoro-5-methoxyphenyl)pyridin-2-yl)methoxy)-5-methylphenyl)propanoate]",,99
"COc1ccc(F)c(-c2ccc(COc3cccc(CCC(=O)O)c3)nc2CC(C)(C)C)c1 [Example 29, 3-(3-((6-(2,2-dimethylpropyl)-5-(2-fluoro-5-methoxyphenyl)pyridin-2-yl)methoxy)phenyl)propanoic acid]",,103
"COc1ccc(F)c(-c2ccc(COc3cc(C(CC(=O)O)C4CC4)ccn3)nc2CC(C)(C)C)c1 (stereo not shown) [Example 30, 3-cyclopropyl-3-(2-((6-(2,2-dimethylpropyl)-5-(2-fluoro-5-methoxyphenyl)pyridin-2-yl)methoxy)pyridin-4-yl)propanoic acid]",,112
"COc1ccc(F)c(-c2ncc(COc3cccc(C(CC(=O)O)C4CC4)c3)cc2OCC(C)C)c1 (stereo not shown) [Example 31, 3-cyclopropyl-3-(3-((6-(2-fluoro-5-methoxyphenyl)-5-isobutoxypyridin-3-yl)methoxy)phenyl)propanoic acid]",,104
"COc1ccc(F)c(-c2ncc(COc3cc(C(CC(=O)O)C4CC4)ncn3)cc2OCC(C)C)c1 (stereo not shown) [Example 32, 3-cyclopropyl-3-(6-((6-(2-fluoro-5-methoxyphenyl)-5-isobutoxypyridin-3-yl)methoxy)pyrimidin-4-yl)propanoic acid]",,104
"COc1ccc(F)c(-c2ncc(COc3cccc(C(CC(=O)O)C4CC4)c3)cc2CC(C)(C)C)c1 (stereo not shown) [Example 34, 3-cyclopropyl-3-(3-((5-(2,2-dimethylpropyl)-6-(2-fluoro-5-methoxyphenyl)pyridin-3-yl)methoxy)phenyl)propanoic acid]",,118
"COc1ccc(F)c(-c2ncc(COc3cc(C(CC(=O)O)C4CC4)ncn3)cc2CC(C)(C)C)c1 (stereo not shown) [Example 35, 3-cyclopropyl-3-(6-((5-(2,2-dimethylpropyl)-6-(2-fluoro-5-methoxyphenyl)pyridin-3-yl)methoxy)pyrimidin-4-yl)propanoic acid]",,101
"COc1ccc(F)c(-c2ncc(COc3cc(C(CC(=O)O)C4CC4)ncn3)cc2OCC(C)(C)C)c1 (stereo not shown) [Example 36, 3-cyclopropyl-3-(6-((5-(2,2-dimethylpropoxy)-6-(2-fluoro-5-methoxyphenyl)pyridin-3-yl)methoxy)pyrimidin-4-yl)propanoic acid]",,106
"COc1ccc(F)c(-c2ncc(COc3cc(C(CC(=O)O)C4CC4)ncn3)cc2OCCC(F)(F)F)c1 (stereo not shown) [Example 37, 3-cyclopropyl-3-(6-((6-(2-fluoro-5-methoxyphenyl)-5-(3,3,3-trifluoropropoxy)pyridin-3-yl)methoxy)pyrimidin-4-yl)propanoic acid]",,101
"COc1ccc(F)c(-c2ncc(COc3cc(C(CC(=O)O)C4CC4)ccn3)cc2CC(C)(C)C)c1 (stereo not shown) [Example 40, 3-cyclopropyl-3-(2-((5-(2,2-dimethylpropyl)-6-(2-fluoro-5-methoxyphenyl)pyridin-3-yl)methoxy)pyridin-4-yl)propanoic acid]",,113
"COc1ccc(F)c(-c2cnc(COc3cc(C(CC(=O)O)C4CC4)ncn3)nc2OCC(C)C)c1 (stereo not shown) [Example 41, 3-cyclopropyl-3-(6-((5-(2-fluoro-5-methoxyphenyl)-4-isobutoxypyrimidin-2-yl)methoxy)pyrimidin-4-yl)propanoic acid]",,110
"COc1ccc(F)c(-c2ccc(COc3cc(C(CC(=O)O)C4CC4)c(F)cn3)nc2CC(C)(C)C)c1 (stereo not shown) [Example 42, 3-cyclopropyl-3-(5-fluoro-2-((5-(2-fluoro-5-methoxyphenyl)-6-neopentylpyridin-2-yl)methoxy)pyridin-4-yl)propanoic acid]",,115
"COc1ccc(F)c(-c2ncc(COc3cc(C(CC(=O)O)C4CC4)c(F)cn3)cc2CC2(C#N)CCCC2)c1 (stereo not shown) [Example 43, 3-(2-((5-((1-cyanocyclopentyl)methyl)-6-(2-fluoro-5-methoxyphenyl)pyridin-3-yl)methoxy)-5-fluoropyridin-4-yl)-3-cyclopropylpropanoic acid]",,115
"COc1ccc(F)c(-c2ncc(COc3cc(C(CC(=O)O)C4CC4)c(F)cn3)cc2CC2(C#N)CCCC2)c1 (stereo not shown) [Example 44, 3-(2-((5-((1-cyanocyclopentyl)methyl)-6-(2-fluoro-5-methoxyphenyl)pyridin-3-yl)methoxy)-5-fluoropyridin-4-yl)-3-cyclopropylpropanoic acid]",107,
